# How the values were obtained:
# KKAy mice [1] = assay: Rearing experiment of KKAy mice: HbA1c level; type: in vivo; settings: Experiment 5, FIG. 12; 0.035 mass % in AIN-93G feed; pair feeding
# Protocol: (§1) KKAy mice at 3 weeks of age were purchased from CLEA Japan, Inc. as diabetes onset mode mice, and experimentally reared after preliminary rearing for 7 days. Herein, the conditions of rearing the mice were as follows. […]
# (§2) AIN-93G was used for base experimental feed. […]
# Note, the Yuzu seed extract used in Experiment 1 was prepared by heat-drying the Yuzu seeds at 100° C. for 720 min, subsequently grinding the dried Yuzu seeds so that the particle size (i.e., diameter) became about 1 mm or less, and performing extraction at an ambient temperature for 10 min using 10-fold volume of 100% ethanol to the ground Yuzu seeds. […]
# After initiating the rearing experiment, blood was collected through a tail vain at the time from 9 am to 11 am at a day after the predetermined days passed. Then, the collected blood was analyzed by blood-glucose analyzers (HORIBA, Ltd. Antsence III and Bayer DCA2000) to measure a blood-glucose level and an HbA1c level. The measured blood-glucose and HbA1c levels were processed to calculate the mean value of each group.
# Note, all the HbA1c levels thus measured and calculated in the experiment are represented by the JDS values. […]
# KKAy mice [2] = assay: Rearing experiment of KKAy mice: blood-glucose level; type: in vivo; settings: Experiment 5, FIG. 11; 0.035 mass % in AIN-93G feed; pair feeding; day 28
# Protocol: as §1, §2
# Note, the Yuzu seed extract used in Experiment 1 was prepared by heat-drying the Yuzu seeds at 100° C. for 720 min, subsequently grinding the dried Yuzu seeds so that the particle size (i.e., diameter) became about 1 mm or less, and performing extraction at an ambient temperature for 10 min using 10-fold volume of 100% ethanol to the ground Yuzu seeds.
# In each of a control group (i.e., administered with AIN-93G alone including no other materials), a Yuzu seed extract (1% mass %) added group, a pioglitazone (0.03 mass %) added group, 10 mice were preliminarily reared for 7 days, and subsequently reared with the experimental feed totally for 28 days.
# After initiating the rearing experiment, blood was collected through a tail vain at the time from 9 am to 11 am at a day after the predetermined days passed. Then, the collected blood was analyzed by blood-glucose analyzers (HORIBA, Ltd. Antsence III and Bayer DCA2000) to measure a blood-glucose level and an HbA1c level. The measured blood-glucose and HbA1c levels were processed to calculate the mean value of each group. […]
smiles,measurement,setting,value
"CC1(C)OC(=O)C=C[C@]2(C)[C@H]3CC[C@@]4(C)[C@H](c5ccoc5)OC(=O)[C@H]5O[C@]54[C@]3(C)C(=O)C[C@@H]12 [obacunone, Obacunone]",HbA1c levels compared to control group,KKAy mice [1],lower than those of the control group
same,blood-glucose level lower than that of the control group (difference),KKAy mice [2],about 50 mg/dl

# Source: patent US11253567B2, “Citrus seed extract-containing composition, food, drug, and method for producing citrus seed extract-containing composition” (Kikkoman Corporation, priority 2014, dated 2022)
